The test addresses T1, Dihydrofolate reductase (Pneumocystis jirovecii (strain RU7), UniProt A0A0W4ZHR8).
T1 sequence (A0A0W4ZHR8 whole entry): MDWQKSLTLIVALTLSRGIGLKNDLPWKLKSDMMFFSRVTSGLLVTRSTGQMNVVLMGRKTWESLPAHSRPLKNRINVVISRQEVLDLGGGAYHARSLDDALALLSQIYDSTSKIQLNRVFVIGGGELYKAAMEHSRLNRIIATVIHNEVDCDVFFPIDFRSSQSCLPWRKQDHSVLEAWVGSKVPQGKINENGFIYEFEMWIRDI
Kind of test: Not found.
Source text: Not found

As usually defined, the IC50 is the concentration that gives 50% inhibition. Low values mean inhibition by little substance, high ones a need for much substance.

The compound `COc1ccc(Sc2sc3nc(N)nc(N)c3c2C)cc1` [US11001595, Compound 4] yielded an IC50 of 252 nM.

Compound `COc1ccccc1Sc1sc2nc(N)nc(N)c2c1C` [US11001595, Compound 2] registered an IC50 of 177 nM.

The values above are taken from BindingDB's records for patent US11001595 (Duquesne University of The Holy Spirit, 2021).
